Reference: US4394503A, “Cephalosporin derivatives” (priority 1981, dated 1983)
Values after ≈ are worked out from the molar mass of the structure shown. Where two headings read alike, the source gives them in different places.

Experiments:
[1] = test system: Penicillin-sensitive S. aureus (Gp-Ia); experiment: In vitro antibacterial activity, two-fold agar dilution, Mueller-Hinton agar (Table 1), group Gp-Ia; type: cell-based; conditions: Staphylococcus aureus; read-out: Geometric Mean of MIC
S. aureus Smith = experiment: MIC against selected test organisms (Table 2); type: cell-based; conditions: Staphylococcus aureus; Gp-Ia, PC-S; read-out: Minimum Inhibitory Concentration
S. aureus A9497 = experiment: MIC against selected test organisms (Table 2); type: cell-based; conditions: Staphylococcus aureus, Gp-Ia, PC-S, read-out: Minimum Inhibitory Concentration
S. aureus BX-1633 = experiment: MIC against selected test organisms (Table 2); type: cell-based; conditions: Staphylococcus aureus, BX1633, read-out: Minimum Inhibitory Concentration
S. aureus A15092 = experiment: MIC against selected test organisms (Table 2); type: cell-based; conditions: Staphylococcus aureus, Gp-Ib, PC-R, read-out: Minimum Inhibitory Concentration
E. coli Juhl = experiment: MIC against selected test organisms (Table 2); type: cell-based; conditions: Escherichia coli, read-out: Minimum Inhibitory Concentration
K. pneumoniae D11 = experiment: MIC against selected test organisms (Table 2); type: cell-based; conditions: Klebsiella pneumoniae
E. cloacae A9656 = experiment: MIC against selected test organisms (Table 2); type: cell-based; conditions: Enterobacter cloacae, Gn-II, CET-R, read-out: Minimum Inhibitory Concentration
B. fragilis A21900 = experiment: MIC against selected test organisms (Table 2); type: cell-based; conditions: Bacteroides fragilis
C. perfringens A9635 = experiment: microbe, parasite or virus in culture; type: cell-based; conditions: Clostridium perfringens, A9635, read-out: Minimum Inhibitory Concentration
S. pyrogenes = experiment: In vitro activity against species of Streptococcus, Neisseria and Haemophilus (Table 3); type: cell-based; conditions: read-out: Geometric Mean of MIC
in vivo = conditions: mouse, im
Description: Blood samples were collected from the orbital sinuses into heparinized capillary tubes and assayed by the paper disc-agar diffusion method using E. coli as the test organism. The half-life values and areas under the curve were determined.

B. fragilis Group I = experiment: In vitro antianaerobic activity in GAM agar (Table 4); type: cell-based; conditions: Bacteroides fragilis, read-out: Geometric Mean of MIC, GAM agar, nonlactamase-producing, ampicillin-sensitive, 3 strains
B. fragilis Group II = experiment: as above; type: cell-based; conditions: Bacteroides fragilis, read-out: Geometric Mean of MIC, GAM agar, lactamase-producing, moderately ampicillin-resistant, 3 strains
B. fragilis Group III = experiment: as above; type: cell-based; conditions: read-out: Geometric Mean of MIC, GAM agar, lactamase-producing, highly ampicillin-resistant, 2 strains
[2] = test system: Others Group IV (C. difficile, C. perfringens, P. acne and P. anaerobius); experiment: microbe, parasite or virus in culture; type: cell-based; conditions: read-out: Geometric Mean of MIC, GAM agar, 1 strain each
[3] = Example 4, ceftazidime (mean of 3 experiments)
[4] = Example 5 ceftazidime (mean of 2 experiments)

| SMILES | MIC (C. perfringens A9635) [µg/mL] | MIC (S. pyrogenes) [µg/mL] | AUC (in vivo; 10 mg/kg) [ng·h/mL] | concentration at 10 min (in vivo; 10 mg/kg) [ng/mL] | concentration at 20 min (in vivo; 10 mg/kg) [ng/mL] | concentration at 0.5 h (in vivo; 10 mg/kg) [ng/mL] | concentration at 40 min (in vivo; 10 mg/kg) [ng/mL] | concentration at 1 h (in vivo; 10 mg/kg) [ng/mL] | concentration at 1.5 h (in vivo; 10 mg/kg) [ng/mL] | half-life (in vivo; 10 mg/kg) [min] | AUC (in vivo; 20 mg/kg) [ng·h/mL] | concentration at 10 min (in vivo; 20 mg/kg) [ng/mL] | concentration at 20 min (in vivo; 20 mg/kg) [ng/mL] | concentration at 0.5 h (in vivo; 20 mg/kg) [ng/mL] | concentration at 40 min (in vivo; 20 mg/kg) [ng/mL] | concentration at 1 h (in vivo; 20 mg/kg) [ng/mL] | concentration at 1.5 h (in vivo; 20 mg/kg) [ng/mL] | half-life (in vivo; 20 mg/kg) [min] | other results |
| --- | --- | --- | --- | --- | --- | --- | --- | --- | --- | --- | --- | --- | --- | --- | --- | --- | --- | --- | --- |
| CSc1cc[n+](CC2=C(C(=O)[O-])N3C(=O)C(NC(=O)/C(=N\OC(C)(C)C(=O)O)c4csc(N)n4)C3SC2)cc1 (centres unmarked) [Example 2, 7-[(Z)-2-(2-Aminothiazol-4-yl)-2-(2-carboxyprop-2-oxyimino)-acetamido]-3-[(4-methylthiopyridinium)methyl]-3-cephem-4-carboxylate] | 12.5 (≈ 21.1 µM) | 0.2 (≈ 0.337 µM) | 3700 | 4500 | 5100 | 3800 | 3200 | 1100 | 450 | 18 | 10000 | 12000 | 12000 | 9300 | 8700 | 4000 | 1200 | 16 | MIC [1]: 4.7 µg/mL (≈ 7.93 µM); MIC (S. aureus Smith): 6.3 µg/mL (≈ 10.6 µM); MIC (S. aureus A9497): 3.1 µg/mL (≈ 5.23 µM); MIC (S. aureus BX-1633): 6.3 µg/mL (≈ 10.6 µM); MIC (S. aureus A15092): 6.3 µg/mL (≈ 10.6 µM); MIC (E. coli Juhl; Gn-Ia, CET-S): 0.1 µg/mL (≈ 0.169 µM); MIC (K. pneumoniae D11; D11, Gn-Ia, CET-S, read-out: Minimum Inhibitory Concentration): 0.1 µg/mL (≈ 0.169 µM); MIC (E. cloacae A9656): 0.2 µg/mL (≈ 0.337 µM); MIC (B. fragilis A21900; A21900, Anaerobe, CET-S, read-out: Minimum Inhibitory Concentration): 6.3 µg/mL (≈ 10.6 µM) |
| CC(C)(O/N=C(\C(=O)N[C@@H]1C(=O)N2C(C(=O)[O-])=C(C[n+]3ccccc3)CS[C@H]12)c1csc(N)n1)C(=O)O [Ceftazidime, ceftazidime, reference compound] | 6.3 (≈ 11.5 µM) | 0.4 (≈ 0.732 µM) | 5500 | 8000 | 7800 | 5500 | 3900 | 1800 | 400 | 16 | 10000 | 18000 | 14000 | 11000 | 7700 | 2400 | 610 | 14 | MIC (E. coli Juhl): 0.1 µg/mL (≈ 0.183 µM); MIC (K. pneumoniae D11; D11, read-out: Minimum Inhibitory Concentration): 0.1 µg/mL (≈ 0.183 µM); MIC (B. fragilis A21900; A21900, read-out: Minimum Inhibitory Concentration): 25 µg/mL (≈ 45.7 µM); MIC (B. fragilis Group I; [3]): 5.3 µg/mL (≈ 9.7 µM); MIC (B. fragilis Group I; [4]): 8.9 µg/mL (≈ 16.3 µM); MIC (B. fragilis Group II; [3]): 13 µg/mL (≈ 23.8 µM); MIC (B. fragilis Group II; [4]): 16 µg/mL (≈ 29.3 µM); MIC (B. fragilis Group III; [3]): 81 µg/mL (≈ 148 µM); MIC (B. fragilis Group III; [4]): > 100 µg/mL; MIC [2, 3]: 6.2 µg/mL (≈ 11.3 µM); MIC [2, 4]: 8.2 µg/mL (≈ 15 µM) |
